{
  "source": "paper PMC8225959",
  "about": "“Clickable Radiocomplexes With Trivalent Radiometals for Cancer Theranostics: In vitro and in vivo Studies” (Frontiers in Medicine, 2021)",
  "key": {"in vivo": {"test": "in vivo", "conditions": "male, NodCB17 SCID, mouse, iv, 0.061 nmol, total radioactivity", "description": "Searching for a preliminary proof of concept of the intended pre-targeting approach, we synthesized a clickable TCO-containing bombesin antagonist (TCO-PEG4-AR) based on the potent GRPr antagonist AR reported in the literature, as described in the Supplementary Material ([29]). We hypothesized that the antagonist, when bound to the surface of human PC3 cells, would be available for the in vivo click reaction with the Tz-containing radiocomplex. As a control, the biodistribution data of the preformed [^90Y]Y-DOTA-Tz-TCO-PEG4-AR in PC3-xenografts bearing mice at 15 min and 1 h p.i. are available in Supplementary Table 5. For the pre-targeting approach, the tumor-bearing mice were injected with 1 nmol of the clickable bombesin antagonist and, after 4 h, we injected the radiocomplex [^90Y]Y-DOTA-Tz. […] In parallel, pre-targeting experiments based on ex-vivo biodistribution studies were performed in the same way for the congener [^111In]In-DOTA-Tz, and using the same animal model. […]\nfrom whole animal body. Blood samples were taken by cardiac puncture at sacrifice. Tissue samples of the main organs were then dissected, weighted and counted in a gamma counter (Berthold).\nBiodistribution results were expressed as percentage of the injected dose per gram tissue (%I.D./g) in the form of an average with standard deviation (%ID/g; mean ± standard deviation (SD).\nBiodistribution in PC3 bearing mice\nMale, 5-6 weeks old NodCB17 SCID mice were obtained from Janvier Lab., France. Mice were housed under pathogen-free conditions with food and water ad libitum, and a 12-12 hour light-dark cycle.\nVeterinarian staff and investigators observed the mice daily to ensure animal welfare and determine if human endpoints (e.g., hunched and ruffled appearance, apathy, ulceration, severe weight loss, tumour burden) were reached. The mice were subcutaneously injected in the shoulder with 200 µL bolus containing a suspension of […] freshly harvested human prostatic cell line PC3 in Matrigel™ Basement Membrane Matrix (BD Sciences) under anaesthesia with 2% isoflurane. The animals were kept under pathogen-free condition and experiments were performed 2–3 weeks later when a tumour reached a volume of approximate 390 ± 190 mm3. Animals were allocated into treatment groups using a complete […]\nThe examination of physiological distribution for [90Y]Y-DOTA-Tz were carried out on 4 mice (n = 4). For the control bolus, 0.061 nmol, 0.1 mL, 7.5 µCi of [90Y]Y-DOTA-Tz was intravenously injected by tail vein. The examination of physiological distribution for [90Y]Y-DOTA-Tz-TCO-PEG4-AR were carried out on groups of 8 mice (n = 4). For the control bolus, 0.061 nmo l, 0.1 mL, 7.5 µCi of 90Y-DOTA-Tz TCO-PEG4-AR was intravenously injected by tail vein. At appropriate time points (15 min, 1h or 2h after-injection), the animals were euthanized, tissues of interest were dissected, weighted, and […]"}},
  "data": [
    {"smiles": "CC(C)C[C@H](NC(=O)C[C@H](O)[C@H](CC(C)C)NC(=O)[C@H](Cc1c[nH]cn1)NC(=O)CNC(=O)[C@@H](NC(=O)[C@H](C)NC(=O)[C@H](Cc1c[nH]c2ccccc12)NC(=O)[C@H](CCC(N)=O)NC(=O)[C@@H](Cc1ccccc1)NC(=O)CCOCCOCCOCCOCCNC(=O)OC1CCCC2=CNN=C(c3ccc(CNC(=O)CN4CCN(CC(=O)O)CCN(CC(=O)O)CCN(CC(=O)O)CC4)cc3)C2CC1)C(C)C)C(N)=O", "note": "(stereo partly shown) [[90Y]Y-DOTA-Tz-TCO-PEG4-AR, metal not drawn]", "values": [
      {"measurement": "radiochemical purity after incubation in HS", "setting": "human serum, 37 °C, 6 days, ITLC (citrate buffer pH 5.5, 0.1 M)", "result": "above 99%"},
      {"measurement": "stability of the preparation after radiolabelling", "setting": "room temperature, HPLC", "result": "stable up to 24 hours"},
      {"measurement": "tissue uptake at 0.25 h", "setting": "in vivo; blood", "result": "14.9 ± 3.89", "unit": "%ID/g"},
      {"measurement": "tissue uptake at 1 h", "setting": "in vivo; blood", "result": "2.65 ± 0.65", "unit": "%ID/g"},
      {"measurement": "tissue uptake at 0.25 h", "setting": "in vivo; bone", "result": "3.15 ± 1.87", "unit": "%ID/g"},
      {"measurement": "tissue uptake at 1 h", "setting": "in vivo; bone", "result": "0.7 ± 0.29", "unit": "%ID/g"},
      {"measurement": "tissue uptake at 0.25 h", "setting": "in vivo; heart", "result": "3.55 ± 0.62", "unit": "%ID/g"},
      {"measurement": "tissue uptake at 1 h", "setting": "in vivo; heart", "result": "0.61 ± 0.27", "unit": "%ID/g"},
      {"measurement": "tissue uptake at 0.25 h", "setting": "in vivo; kidneys", "result": "20.5 ± 7.97", "unit": "%ID/g"},
      {"measurement": "tissue uptake at 1 h", "setting": "in vivo; kidneys", "result": "2.94 ± 0.44", "unit": "%ID/g"},
      {"measurement": "tissue uptake at 0.25 h", "setting": "in vivo; large intestine", "result": "3.98 ± 0.68", "unit": "%ID/g"},
      {"measurement": "tissue uptake at 1 h", "setting": "in vivo; large intestine", "result": "0.67 ± 0.19", "unit": "%ID/g"},
      {"measurement": "tissue uptake at 0.25 h", "setting": "in vivo; liver", "result": "7.35 ± 3.27", "unit": "%ID/g"},
      {"measurement": "tissue uptake at 1 h", "setting": "in vivo; liver", "result": "0.82 ± 0.1", "unit": "%ID/g"},
      {"measurement": "tissue uptake at 0.25 h", "setting": "in vivo; lung", "result": "7.48 ± 1.92", "unit": "%ID/g"},
      {"measurement": "tissue uptake at 1 h", "setting": "in vivo; lung", "result": "1.57 ± 0.63", "unit": "%ID/g"},
      {"measurement": "tissue uptake at 0.25 h", "setting": "in vivo; muscle", "result": "2.36 ± 0.33", "unit": "%ID/g"},
      {"measurement": "tissue uptake at 1 h", "setting": "in vivo; muscle", "result": "0.41 ± 0.12", "unit": "%ID/g"},
      {"measurement": "tissue uptake at 0.25 h", "setting": "in vivo; pancreas", "result": "32 ± 3.86", "unit": "%ID/g"},
      {"measurement": "tissue uptake at 1 h", "setting": "in vivo; pancreas", "result": "14 ± 1.99", "unit": "%ID/g"},
      {"measurement": "tissue uptake at 0.25 h", "setting": "in vivo; prostate", "result": "26.3 ± 18", "unit": "%ID/g"},
      {"measurement": "tissue uptake at 1 h", "setting": "in vivo; prostate", "result": "3.48 ± 3.63", "unit": "%ID/g"},
      {"measurement": "tissue uptake at 0.25 h", "setting": "in vivo; salivary gland", "result": "3.69 ± 1.39", "unit": "%ID/g"},
      {"measurement": "tissue uptake at 1 h", "setting": "in vivo; salivary gland", "result": "0.6 ± 0.18", "unit": "%ID/g"},
      {"measurement": "tissue uptake at 0.25 h", "setting": "in vivo; small intestine", "result": "2.74 ± 0.28", "unit": "%ID/g"},
      {"measurement": "tissue uptake at 1 h", "setting": "in vivo; small intestine", "result": "0.99 ± 0.32", "unit": "%ID/g"},
      {"measurement": "tissue uptake at 0.25 h", "setting": "in vivo; spleen", "result": "4.03 ± 2.21", "unit": "%ID/g"},
      {"measurement": "tissue uptake at 1 h", "setting": "in vivo; spleen", "result": "1.08 ± 0.39", "unit": "%ID/g"},
      {"measurement": "tissue uptake at 0.25 h", "setting": "in vivo; stomach", "result": "4.72 ± 0.38", "unit": "%ID/g"},
      {"measurement": "tissue uptake at 1 h", "setting": "in vivo; stomach", "result": "1.95 ± 0.39", "unit": "%ID/g"},
      {"measurement": "tissue uptake at 0.25 h", "setting": "in vivo; thyroid", "result": "6.57 ± 3.95", "unit": "%ID/g"},
      {"measurement": "tissue uptake at 1 h", "setting": "in vivo; thyroid", "result": "0.99 ± 0.5", "unit": "%ID/g"},
      {"measurement": "tissue uptake at 0.25 h", "setting": "in vivo; tumour", "result": "6.32 ± 1.28", "unit": "%ID/g"},
      {"measurement": "tissue uptake at 1 h", "setting": "in vivo; tumour", "result": "2.26 ± 0.93", "unit": "%ID/g"}
    ]}
  ]
}
